Experiments:
[1] = biological target: T1, PRMT5/MEP50 (Homo sapiens, UniProt O14744); assay: PRMT5 Biochemical Assay (PRMT5/MEP50 enzyme assay on peptide substrate, 3H-SAM Flashplate); conditions: Table D-2; read-out: Biochemical IC50
T1 construct: Expressed full-length human Flag-PRMT5/6His-MeP50 protein complex was purified; made in house; host or cells: Spodoptera frugiperda (SF9) insect cells, baculovirus (pDEST8)

[2] = system: Z-138 cells; assay: Z-138 Proliferation Assay (Cell Titer Glo, 5 days); format: cell-based; conditions: Homo sapiens, Table D-2
In short: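 Exponentially growing Z-138 cells (10,000 cells/ml) in RPMI 1640 with 10% FBS are exposed to nine-point 3-fold dilutions (final top concentration 20 μM, 0.2% DMSO) for 5 days at 37° C. Viability is measured as ATP by CellTiter-Glo luminescence. The 50% inhibitory concentration comes from a 4-parameter fit.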

T1 sequence (O14744 with tags, fused parts or gaps): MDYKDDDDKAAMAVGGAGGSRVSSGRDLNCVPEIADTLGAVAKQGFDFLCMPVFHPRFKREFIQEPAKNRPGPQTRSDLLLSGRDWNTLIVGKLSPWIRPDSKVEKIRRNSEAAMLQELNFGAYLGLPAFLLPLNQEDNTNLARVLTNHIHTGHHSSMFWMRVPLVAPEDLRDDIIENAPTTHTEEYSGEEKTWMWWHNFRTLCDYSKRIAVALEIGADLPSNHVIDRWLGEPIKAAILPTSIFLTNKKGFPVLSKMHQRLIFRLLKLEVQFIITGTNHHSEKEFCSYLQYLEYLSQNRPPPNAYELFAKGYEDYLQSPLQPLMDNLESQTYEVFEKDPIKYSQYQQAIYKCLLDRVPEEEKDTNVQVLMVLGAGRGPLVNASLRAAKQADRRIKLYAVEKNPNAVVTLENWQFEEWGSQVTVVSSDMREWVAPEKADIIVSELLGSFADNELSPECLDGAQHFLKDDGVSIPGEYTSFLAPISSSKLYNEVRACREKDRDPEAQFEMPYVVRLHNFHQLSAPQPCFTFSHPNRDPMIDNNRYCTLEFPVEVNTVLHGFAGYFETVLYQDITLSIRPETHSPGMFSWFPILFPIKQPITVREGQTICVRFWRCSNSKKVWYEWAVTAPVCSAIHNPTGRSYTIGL
T1 sequence (Q9BQA1 with tags, fused parts or gaps partner limits assumed): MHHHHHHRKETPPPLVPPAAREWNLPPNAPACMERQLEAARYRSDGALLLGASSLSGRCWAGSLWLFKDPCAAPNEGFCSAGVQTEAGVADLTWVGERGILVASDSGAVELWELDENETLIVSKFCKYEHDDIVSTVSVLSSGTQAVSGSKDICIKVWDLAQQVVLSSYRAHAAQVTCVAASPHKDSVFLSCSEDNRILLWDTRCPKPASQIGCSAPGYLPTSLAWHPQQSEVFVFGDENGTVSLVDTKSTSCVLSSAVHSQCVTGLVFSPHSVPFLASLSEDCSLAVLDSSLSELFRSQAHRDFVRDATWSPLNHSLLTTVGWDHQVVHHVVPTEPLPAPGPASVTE

IC50 [1] [µM] | Compound | EC50 [2] [µM]
0.101 to 1 | N#Cc1ccccc1-c1cccc(OCC(O)CN2CCc3ccccc3C2)c1 (stereo not drawn) [Compound D93] | 10 to 40
0.101 to 1 | N#Cc1ccc(-c2cccc(OCC(O)CN3CCc4ccccc4C3)c2)cc1 (stereo not drawn) [Compound D94] | 10 to 40
0.101 to 1 | Oc1cccc(-c2cccc(OCC(O)CN3CCc4ccccc4C3)c2)c1 (stereo not drawn) [Compound D95] | 10 to 40

Source: patent US20150344457A1, “METHODS OF INHIBITING PRMT5” (EPIZYME, INC., priority 2012, published 2015)
